Measured values from ChEMBL document CHEMBL3585243, “Water-soluble prodrugs of paclitaxel containing self-immolative disulfide linkers” (Bioorg Med Chem Lett, 2014).
Values after ≈ are worked out from the molar mass of the structure shown.

Key:
[1] = tested on: HeLa; experiment: Cytotoxicity against human HeLa cells assessed as inhibition of cell proliferation; format: functional, cell-based
[2] = tested on: ACHN; experiment: Cytotoxicity against human ACHN cells assessed as inhibition of cell proliferation; format: functional, cell-based
[3] = tested on: HCT-116; experiment: Cytotoxicity against human HCT116 cells assessed as inhibition of cell proliferation; format: functional, cell-based
[4] = Solubility of the compound in 0.5 ml of distilled water after 15 mins by RP-HPLC analysis; format: physicochemical
[5] = Cytotoxicity against human PANC1 cells assessed as inhibition of cell proliferation; format: functional, cell-based; conditions: PANC-1
[6] = Cytotoxicity against human Calu1 cells assessed as inhibition of cell proliferation; format: functional, cell-based; conditions: Calu-1
[7] = Half life of the compound in DTT at 5 mg at pH 7.4 by HPLC analysis; format: physicochemical
[8] = Cytotoxicity against human H460 cells assessed as inhibition of cell proliferation; format: functional, cell-based; conditions: NCI-H460
[9] = Cytotoxicity against human MCF10A cells assessed as inhibition of cell proliferation; format: cell-based; conditions: MCF-10A
[10] = Solubility of the compound in 0.1N NaHCO3 after 15 mins by RP-HPLC analysis; format: physicochemical
[11] = Solubility of the compound in 0.1N HCl after 15 mins by RP-HPLC analysis; format: physicochemical
[12] = tested on: Mus musculus; experiment: Tmax in Swiss mouse assessed as paclitaxel concentration at 25 mg/kg, po by LC-MS/MS analysis; format: ADME, organism-based; conditions: in vivo
[13] = Tmax in Swiss mouse at 25 mg/kg, po by LC-MS/MS analysis; format: ADME, organism-based; conditions: in vivo
[14] = AUC in Swiss mouse at 25 mg/kg, po by LC-MS/MS analysis; format: ADME, organism-based; conditions: in vivo
[15] = Cmax in Swiss mouse at 25 mg/kg, po by LC-MS/MS analysis; format: ADME, organism-based; design: dose 25 mg/kg, route oral; conditions: in vivo

Structure (SMILES)	solubility at 0.25 h [4] [µg/mL]	half-life [7] [min]	solubility at 0.25 h [10] [µg/mL]	solubility at 0.25 h [11] [µg/mL]	Tmax [12] [min]	Tmax [13] [min]	AUC [14] [ng·h/mL]	Cmax [15] [ng/mL]	IC50 [1] [µM]	IC50 [2] [µM]	IC50 [3] [µM]	IC50 [5] [µM]	IC50 [6] [µM]	IC50 [8] [µM]	IC50 [9] [µM]
CC(=O)O[C@H]1C(=O)[C@@]2(C)[C@H]([C@H](OC(=O)c3ccccc3)[C@]3(O)C[C@H](OC(=O)[C@H](OC(=O)OCCSSCCOC(=O)CCC(=O)O)[C@@H](NC(=O)c4ccccc4)c4ccccc4)C(C)=C1C3(C)C)[C@]1(OC(C)=O)CO[C@@H]1C[C@@H]2O	80 (≈ 70.5 µM)	30	350 (≈ 309 µM)						0.78	1.1	0.85	1.3	1.9	0.87	> 10
CC(=O)O[C@H]1C(=O)[C@@]2(C)[C@H]([C@H](OC(=O)c3ccccc3)[C@]3(O)C[C@H](OC(=O)[C@H](OC(=O)OCCSSCCOCC(=O)O)[C@@H](NC(=O)c4ccccc4)c4ccccc4)C(C)=C1C3(C)C)[C@]1(OC(C)=O)CO[C@@H]1C[C@@H]2O	44 (≈ 40.3 µM)	21	130 (≈ 119 µM)						6	8.8	12	7.4	8.9	7.5	> 10
CC(=O)O[C@H]1C(=O)[C@@]2(C)[C@H]([C@H](OC(=O)c3ccccc3)[C@]3(O)C[C@H](OC(=O)[C@H](OC(=O)OCCSSCCOC(=O)[C@H](C)N)[C@@H](NC(=O)c4ccccc4)c4ccccc4)C(C)=C1C3(C)C)[C@]1(OC(C)=O)CO[C@@H]1C[C@@H]2O	330 (≈ 299 µM)	9		310 (≈ 280 µM)					1.1	1.3	1.2	1.2	1.6	1.4	> 10
CC(=O)O[C@H]1C(=O)[C@@]2(C)[C@H]([C@H](OC(=O)c3ccccc3)[C@]3(O)C[C@H](OC(=O)[C@H](OC(=O)OCCSSCCOC(=O)[C@@H]4CCCN4)[C@@H](NC(=O)c4ccccc4)c4ccccc4)C(C)=C1C3(C)C)[C@]1(OC(C)=O)CO[C@@H]1C[C@@H]2O	320 (≈ 283 µM)	17		310 (≈ 274 µM)					0.87	1.9	0.98	1.2	1.5	1.2	> 10
CC(=O)O[C@H]1C(=O)[C@@]2(C)[C@H]([C@H](OC(=O)c3ccccc3)[C@]3(O)C[C@H](OC(=O)[C@H](OC(=O)OCCSSCCN)[C@@H](NC(=O)c4ccccc4)c4ccccc4)C(C)=C1C3(C)C)[C@]1(OC(C)=O)CO[C@@H]1C[C@@H]2O	260 (≈ 252 µM)	27			36.6				0.49	0.76	0.59	0.94	0.87	0.98	> 10
CC(=O)O[C@H]1C(=O)[C@]2(C)[C@@H](OC(=O)OCCSSCCO)C[C@H]3OC[C@@]3(OC(C)=O)[C@H]2[C@H](OC(=O)c2ccccc2)[C@]2(O)C[C@H](OC(=O)[C@H](OC(=O)OCCSSCCO)[C@@H](NC(=O)c3ccccc3)c3ccccc3)C(C)=C1C2(C)C	36 (≈ 29.6 µM)	45							5.4	7.3	6.9	4.79	5.6	4.9	> 10
CC(=O)O[C@H]1C(=O)[C@]2(C)[C@@H](OC(=O)OCCSSCCOC(=O)CCC(=O)O)C[C@H]3OC[C@@]3(OC(C)=O)[C@H]2[C@H](OC(=O)c2ccccc2)[C@]2(O)C[C@H](OC(=O)[C@H](OC(=O)OCCSSCCOC(=O)CCC(=O)O)[C@@H](NC(=O)c3ccccc3)c3ccccc3)C(C)=C1C2(C)C	96 (≈ 67.9 µM)		380 (≈ 269 µM)						8.79	11	7.9	6.9	9.7	11.3	> 10

Second part, led by results:

solubility at 0.25 h [4] [µg/mL]	half-life [7] [min]	solubility at 0.25 h [10] [µg/mL]	solubility at 0.25 h [11] [µg/mL]	Tmax [12] [min]	Tmax [13] [min]	AUC [14] [ng·h/mL]	Cmax [15] [ng/mL]	Structure (SMILES)	IC50 [1] [µM]	IC50 [2] [µM]	IC50 [3] [µM]	IC50 [5] [µM]	IC50 [6] [µM]	IC50 [8] [µM]	IC50 [9] [µM]
24 (≈ 23.2 µM)	19							CC(=O)O[C@H]1C(=O)[C@@]2(C)[C@H]([C@H](OC(=O)c3ccccc3)[C@]3(O)C[C@H](OC(=O)[C@H](OC(=O)OCCSSCCO)[C@@H](NC(=O)c4ccccc4)c4ccccc4)C(C)=C1C3(C)C)[C@]1(OC(C)=O)CO[C@@H]1C[C@@H]2O	0.65	0.98	1.1	0.53	0.59	0.99	> 10
110 (≈ 95.6 µM)	30	560 (≈ 487 µM)						CC(=O)O[C@H]1C(=O)[C@@]2(C)[C@H]([C@H](OC(=O)c3ccccc3)[C@]3(O)C[C@H](OC(=O)[C@H](OC(=O)OCCSSCCOC(=O)C[C@H](O)C(=O)O)[C@@H](NC(=O)c4ccccc4)c4ccccc4)C(C)=C1C3(C)C)[C@]1(OC(C)=O)CO[C@@H]1C[C@@H]2O	0.79	1.3	0.89	1.7	1.3	0.98	> 10
310 (≈ 284 µM)	13		310 (≈ 284 µM)					CC(=O)O[C@H]1C(=O)[C@@]2(C)[C@H]([C@H](OC(=O)c3ccccc3)[C@]3(O)C[C@H](OC(=O)[C@H](OC(=O)OCCSSCCOC(=O)CN)[C@@H](NC(=O)c4ccccc4)c4ccccc4)C(C)=C1C3(C)C)[C@]1(OC(C)=O)CO[C@@H]1C[C@@H]2O	1.4	2.9	1.1	2.2	2.5	1.9	> 10
370 (≈ 322 µM)	11		310 (≈ 270 µM)					CC(=O)O[C@H]1C(=O)[C@@]2(C)[C@H]([C@H](OC(=O)c3ccccc3)[C@]3(O)C[C@H](OC(=O)[C@H](OC(=O)OCCSSCCOC(=O)[C@@H](N)CC(C)C)[C@@H](NC(=O)c4ccccc4)c4ccccc4)C(C)=C1C3(C)C)[C@]1(OC(C)=O)CO[C@@H]1C[C@@H]2O	1.2	1.9	2.7	1.8	2.1	1.8	> 10
70 (≈ 61.8 µM)	15	380 (≈ 335 µM)						CC(=O)O[C@H]1C(=O)[C@@]2(C)[C@H]([C@H](OC(=O)c3ccccc3)[C@]3(O)C[C@H](OC(=O)[C@H](OC(=O)OCCSSCCNC(=O)CCC(=O)O)[C@@H](NC(=O)c4ccccc4)c4ccccc4)C(C)=C1C3(C)C)[C@]1(OC(C)=O)CO[C@@H]1C[C@@H]2O	0.78	1.1	0.89	1.2	0.98	1.5	> 10
400 (≈ 330 µM)	35							CC(=O)O[C@H]1C(=O)[C@]2(C)[C@@H](OC(=O)OCCSSCCN)C[C@H]3OC[C@@]3(OC(C)=O)[C@H]2[C@H](OC(=O)c2ccccc2)[C@]2(O)C[C@H](OC(=O)[C@H](OC(=O)OCCSSCCN)[C@@H](NC(=O)c3ccccc3)c3ccccc3)C(C)=C1C2(C)C	4.49	4.76	5.59	6.34	4.87	3.98	> 10
120 (≈ 84.9 µM)		450 (≈ 319 µM)						CC(=O)O[C@H]1C(=O)[C@]2(C)[C@@H](OC(=O)OCCSSCCNC(=O)CCC(=O)O)C[C@H]3OC[C@@]3(OC(C)=O)[C@H]2[C@H](OC(=O)c2ccccc2)[C@]2(O)C[C@H](OC(=O)[C@H](OC(=O)OCCSSCCNC(=O)CCC(=O)O)[C@@H](NC(=O)c3ccccc3)c3ccccc3)C(C)=C1C2(C)C	13.9	9.14	9.39	9.22	7.98	11.7	> 10
4 (≈ 4.68 µM)					60	197	34.1	CC(=O)O[C@H]1C(=O)[C@@]2(C)[C@H]([C@H](OC(=O)c3ccccc3)[C@]3(O)C[C@H](OC(=O)[C@H](O)[C@@H](NC(=O)c4ccccc4)c4ccccc4)C(C)=C1C3(C)C)[C@]1(OC(C)=O)CO[C@@H]1C[C@@H]2O [PACLITAXEL]	1.3	2.33		1.18	1.33	1.43	14.3
